Measured values as given in the NIST ThermoML archive (doi:10.1016/j.fluid.2010.01.020).
± gives the expanded uncertainty stated by the source.

Experiments:
[1] = Crystal
[2] = Molar enthalpy of transition or fusion; conditions: Crystal; DSC
[3] = xn = mol fraction of the nth substance listed; conditions: 101 kPa, Liquid, Vibrating tube method

CCn1cc[n+](C)c1.Cc1ccc(S(=O)(=O)[O-])cc1 [1-ethyl-3-methylimidazolium 4-methylbenzenesulfonate]
[1]
Conditions | Normal melting temperature [°C]
DTA | 49.2 ± 0.4
Solid-Liquid Equilibrium | 53.5 ± 0.4

Conditions | Molar enthalpy of transition or fusion [kJ/mol]
[2] | 20.5 ± 0.48

CCn1cc[n+](C)c1.N#C[S-] [1-ethyl-3-methylimidazolium thiocyanate] + O
mass density [kg/m3], [3]
Conditions | 298.15 K | 308.15 K | 318.15 K | 328.15 K | 338.15 K | 348.15 K
x1 = 0.0248 | 1016 ± 0.63 | 1010.56 ± 0.62 | 1005.23 ± 0.61 | 1000.09 ± 0.6 | 994.12 ± 0.57 | 987.53 ± 0.56
x1 = 0.0635 | 1036.86 ± 0.42 | 1031.47 ± 0.4 | 1025.75 ± 0.4 | 1019.71 ± 0.39 | 1013.39 ± 0.38 | 1006.75 ± 0.39
x1 = 0.1377 | 1062.14 ± 0.3 | 1056.21 ± 0.29 | 1049.96 ± 0.29 | 1043.71 ± 0.28 | 1036.7 ± 0.28 | 1030.27 ± 0.28
x1 = 0.2145 | 1077.88 ± 0.21 | 1071.45 ± 0.21 | 1064.98 ± 0.2 | 1058.44 ± 0.2 | 1051.85 ± 0.2 | 1045.17 ± 0.2
x1 = 0.3381 | 1092.51 ± 0.23 | 1086.08 ± 0.23 | 1079.64 ± 0.23 | 1073.2 ± 0.22 | 1066.76 ± 0.22 | 1060.28 ± 0.22
x1 = 0.4198 | 1098.72 ± 0.27 | 1092.33 ± 0.26 | 1085.98 ± 0.26 | 1079.65 ± 0.26 | 1073.3 ± 0.25 | 1066.97 ± 0.25
x1 = 0.5599 | 1105.92 ± 0.4 | 1099.59 ± 0.4 | 1093.4 ± 0.39 | 1087.19 ± 0.39 | 1081 ± 0.38 | 1074.85 ± 0.37
x1 = 0.6524 | 1109.2 ± 0.51 | 1102.99 ± 0.51 | 1096.81 ± 0.5 | 1090.66 ± 0.49 | 1084.56 ± 0.49 | 1078.47 ± 0.48
x1 = 0.7369 | 1111.59 ± 0.63 | 1105.42 ± 0.62 | 1099.15 ± 0.61 | 1093.24 ± 0.61 | 1087.14 ± 0.6 | 1081.08 ± 0.59
x1 = 0.8256 | 1113.68 ± 0.77 | 1107.51 ± 0.76 | 1101.41 ± 0.75 | 1095.36 ± 0.74 | 1089.34 ± 0.73 | 1083.37 ± 0.72
x1 = 0.9263 | 1115.64 ± 0.94 | 1109.54 ± 0.93 | 1103.5 ± 0.92 | 1097.51 ± 0.91 | 1091.43 ± 0.9 | 1085.62 ± 0.88
x1 = 1 | 1116.84 ± 1.1 | 1110.73 ± 1.1 | 1104.67 ± 1.1 | 1098.69 ± 1 | 1092.73 ± 1 | 1086.83 ± 1

O [water] + CCn1cc[n+](C)c1.N#C[S-]
[3], x2 = 0
Conditions | mass density [kg/m3]
308.15 K | 992.03 ± 0.11
318.15 K | 987.02 ± 0.11
328.15 K | 981.69 ± 0.11
338.15 K | 977.03 ± 0.11
348.15 K | 971.75 ± 0.11
